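Cultured in 96-well plates, cells were exposed to test compound for 48 hours across five concentrations. TGI is the concentration that stops growth completely.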
Columns and labels:
Assay in all cases: NCI anticancer screen, dose series, 48 h
SR leukemia = tested on: SR leukemia
TK-10 renal = tested on: TK-10 renal
HL-60(TB) leukemia = tested on: HL-60(TB) leukemia
SNB-75 CNS = tested on: SNB-75 CNS
COLO 205 colon = tested on: COLO 205 colon
OVCAR-8 ovarian = tested on: OVCAR-8 ovarian
HCT-15 colon = tested on: HCT-15 colon
SNB-19 CNS = tested on: SNB-19 CNS
NCI-H226 lung = tested on: NCI-H226 lung
SF-539 CNS = tested on: SF-539 CNS
EKVX NSCLC = tested on: EKVX NSCLC
HCT-116 colon = tested on: HCT-116 colon
RXF 393 renal = tested on: RXF 393 renal
K-562 leukemia = tested on: K-562 leukemia
HT29 colon = tested on: HT29 colon
MCF7 breast = tested on: MCF7 breast
RPMI-8226 leukemia = tested on: RPMI-8226 leukemia
HOP-62 NSCLC = tested on: HOP-62 NSCLC
KM20L2 colon = tested on: KM20L2 colon
HCC-2998 colon = tested on: HCC-2998 colon

Compound | TGI (SR leukemia) [µM] | TGI (TK-10 renal) [µM] | TGI (HL-60(TB) leukemia) [µM] | TGI (SNB-75 CNS) [µM] | TGI (COLO 205 colon) [µM] | TGI (OVCAR-8 ovarian) [µM] | TGI (HCT-15 colon) [µM] | TGI (SNB-19 CNS) [µM] | TGI (NCI-H226 lung) [µM] | TGI (SF-539 CNS) [µM] | TGI (EKVX NSCLC) [µM] | TGI (HCT-116 colon) [µM] | TGI (RXF 393 renal) [µM] | TGI (K-562 leukemia) [µM] | TGI (HT29 colon) [µM] | TGI (MCF7 breast) [µM] | TGI (RPMI-8226 leukemia) [µM] | TGI (HOP-62 NSCLC) [µM] | TGI (KM20L2 colon) [µM] | TGI (HCC-2998 colon) [µM]
O/N=C\c1cc(O)c(O)c(/C=N/O)c1 | > 100 | > 100 | > 100 | > 100 | > 100 | > 100 | > 100 | > 100 | 78.6 | > 100 | > 100 | > 100 | > 100 | > 100 | > 100 | > 100 | > 100 | > 100 | – | –
CN1OC(=O)N(C)C1c1ccccc1 (stereo not given) | – | – | > 100 | > 100 | > 100 | > 100 | > 100 | > 100 | > 100 | > 100 | > 100 | > 100 | > 100 | > 100 | > 100 | > 100 | > 100 | > 100 | > 100 | > 100
CNC(=O)CN1CC(=O)N(C)C(=O)C1 | > 100 | > 100 | > 100 | > 100 | > 100 | – | > 100 | > 100 | > 100 | – | – | – | > 100 | > 100 | – | – | > 100 | > 100 | > 100 | > 100
COc1ccc2c(c1)c1cc(OC)ccc1n2CCCCOc1ccc(-c2c3ccccc3c(-c3ccc(OCCCCn4c5ccc(OC)cc5c5cc(OC)ccc54)cc3)c3ccccc23)cc1 | – | > 100 | – | > 100 | > 100 | > 100 | > 100 | > 100 | > 100 | > 100 | > 100 | > 100 | – | > 100 | – | – | – | > 100 | > 100 | > 100
COc1cc2c(cc1OC)CCN=C2 | > 100 | > 100 | > 100 | > 100 | > 100 | > 100 | > 100 | > 100 | > 100 | – | – | > 100 | > 100 | – | > 100 | > 100 | > 100 | > 100 | – | > 100
